Experimental data from article PMC6691788, “Design and synthesis of phthalazine-based compounds as potent anticancer agents with potential antiangiogenic activity via VEGFR-2 inhibition” (Journal of Enzyme Inhibition and Medicinal Chemistry, 2019).

Assays:
OVCAR-8 = experiment: NCI 60 cell panel SRB screen; format: cell-based; conditions: Homo sapiens; OVCAR-8, single dose 10 μM; read-out: percent cell growth promotion
K-562 = experiment: NCI 60 cell panel SRB screen; format: cell-based; conditions: Homo sapiens, K562; K-562, single dose 10 μM; read-out: percent cell growth promotion
UACC-62 = experiment: NCI 60 cell panel SRB screen; format: cell-based; conditions: Homo sapiens, UACC-62, read-out: percent cell growth promotion
DU-145 = experiment: NCI 60 cell panel SRB screen; format: cell-based; conditions: Homo sapiens; DU-145, single dose 10 μM; read-out: percent cell growth promotion
SW-620 = experiment: NCI 60 cell panel SRB screen; format: cell-based; conditions: Homo sapiens; SW-620, single dose 10 μM; read-out: percent cell growth promotion
OVCAR-3 = experiment: NCI 60 cell panel SRB screen; format: cell-based; conditions: Homo sapiens; OVCAR-3, single dose 10 μM; read-out: percent cell growth promotion
HCT-116 = experiment: NCI 60 cell panel SRB screen; format: cell-based; conditions: Homo sapiens; HCT-116, single dose 10 μM; read-out: percent cell growth promotion
SF-268 = experiment: NCI 60 cell panel SRB screen; format: cell-based; conditions: Homo sapiens; SF-268, single dose 10 μM; read-out: percent cell growth promotion
SR = experiment: NCI 60 cell panel SRB screen; format: cell-based; conditions: Homo sapiens, single dose 10 μM, read-out: percent cell growth promotion
MALME-3M = experiment: NCI 60 cell panel SRB screen; format: cell-based; conditions: Homo sapiens, Malme-3M, read-out: percent cell growth promotion
SF-295 = experiment: NCI 60 cell panel SRB screen; format: cell-based; conditions: Homo sapiens; SF-295, single dose 10 μM; read-out: percent cell growth promotion
SK-MEL-5 = experiment: NCI 60 cell panel SRB screen; format: cell-based; conditions: Homo sapiens, SK-MEL-5, read-out: percent cell growth promotion
A549/ATCC = experiment: NCI 60 cell panel SRB screen; format: cell-based; conditions: Homo sapiens, single dose 10 μM, read-out: percent cell growth promotion
786-0 = experiment: NCI 60 cell panel SRB screen; format: cell-based; conditions: Homo sapiens; 786-0, single dose 10 μM; read-out: percent cell growth promotion
CCRF-CEM = experiment: NCI 60 cell panel SRB screen; format: cell-based, human; conditions: Homo sapiens, single dose 10 μM, read-out: percent cell growth promotion
HOP-62 = experiment: NCI 60 cell panel SRB screen; format: cell-based; conditions: Homo sapiens; HOP-62, single dose 10 μM; read-out: percent cell growth promotion
UACC-257 = experiment: NCI 60 cell panel SRB screen; format: cell-based; conditions: Homo sapiens, UACC-257, read-out: percent cell growth promotion
VEGFR-2 tyrosine kinase = target: T1, VEGFR-2 tyrosine kinase (Homo sapiens, UniProt P35968); experiment: In vitro VEGFR-2 tyrosine kinase assay (BPS Bioscience); format: biochemical; conditions: read-out: VEGFR-2 % inhibition; 10 μM concentration
T1 construct: purchased BPS Bioscience 40301
Outline: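 For IC50, ADP formation after a 30-min 30 °C reaction was detected by ADP-Glo luminescence in duplicate, blank-subtracted and fitted as log inhibitor versus normalised response. The 10 µM single-dose test instead measured remaining ATP (Kinase-Glo Plus) after 40 min at 30 °C with poly(Glu,Tyr) substrate, 10 μM ATP, pH 7.4, 1% DMSO.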

RPMI-8226 = experiment: NCI 60 cell panel SRB screen; format: cell-based; conditions: Homo sapiens; RPMI-8226, single dose 10 μM; read-out: percent cell growth promotion
M14 = experiment: NCI 60 cell panel SRB screen; format: cell-based; conditions: Homo sapiens, M14, read-out: percent cell growth promotion

T1 sequence (P35968 20-1356): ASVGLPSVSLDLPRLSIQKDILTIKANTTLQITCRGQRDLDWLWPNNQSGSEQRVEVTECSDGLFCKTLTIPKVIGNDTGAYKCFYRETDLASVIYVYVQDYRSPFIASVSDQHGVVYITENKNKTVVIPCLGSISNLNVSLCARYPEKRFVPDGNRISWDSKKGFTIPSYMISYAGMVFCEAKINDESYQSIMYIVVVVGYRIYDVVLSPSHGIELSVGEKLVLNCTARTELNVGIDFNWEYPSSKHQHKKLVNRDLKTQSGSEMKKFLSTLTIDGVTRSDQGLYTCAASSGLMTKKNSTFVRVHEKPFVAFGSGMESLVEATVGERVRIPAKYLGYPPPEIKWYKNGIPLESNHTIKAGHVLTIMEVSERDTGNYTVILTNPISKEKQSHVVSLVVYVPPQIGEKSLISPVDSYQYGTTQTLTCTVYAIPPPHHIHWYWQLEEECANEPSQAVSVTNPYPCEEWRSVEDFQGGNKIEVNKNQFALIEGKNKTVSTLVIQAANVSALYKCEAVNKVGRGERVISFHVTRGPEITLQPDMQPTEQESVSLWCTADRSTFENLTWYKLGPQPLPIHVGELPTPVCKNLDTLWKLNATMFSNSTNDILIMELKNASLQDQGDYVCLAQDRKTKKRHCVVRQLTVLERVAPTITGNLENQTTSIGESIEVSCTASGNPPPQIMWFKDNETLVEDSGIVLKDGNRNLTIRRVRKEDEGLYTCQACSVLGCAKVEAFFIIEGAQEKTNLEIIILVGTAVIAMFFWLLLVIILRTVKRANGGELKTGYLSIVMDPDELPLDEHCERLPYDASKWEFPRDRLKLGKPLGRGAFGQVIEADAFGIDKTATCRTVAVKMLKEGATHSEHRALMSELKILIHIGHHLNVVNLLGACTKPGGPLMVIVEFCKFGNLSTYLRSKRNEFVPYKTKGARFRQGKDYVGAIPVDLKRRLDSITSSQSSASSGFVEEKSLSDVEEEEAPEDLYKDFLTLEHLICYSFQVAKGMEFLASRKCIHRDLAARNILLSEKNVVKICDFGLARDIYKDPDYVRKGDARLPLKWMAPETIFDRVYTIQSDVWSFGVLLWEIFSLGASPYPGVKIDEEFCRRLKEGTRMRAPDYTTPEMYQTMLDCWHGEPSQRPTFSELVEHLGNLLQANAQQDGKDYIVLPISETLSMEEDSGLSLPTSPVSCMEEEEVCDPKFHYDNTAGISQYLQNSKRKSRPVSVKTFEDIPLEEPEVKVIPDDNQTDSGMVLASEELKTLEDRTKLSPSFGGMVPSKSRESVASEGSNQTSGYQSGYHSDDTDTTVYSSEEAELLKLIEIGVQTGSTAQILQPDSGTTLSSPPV

O=C(Nc1ccc(Cl)cc1)Nc1ccc(Oc2nnc(Cl)c3ccccc23)cc1 [Compound 13b, 1–(4-Chlorophenyl)-3–(4-(4-chlorophthalazin-1-yloxy)phenyl)urea]
activity at 10 µM (OVCAR-8): 86% | activity at 10 µM (K-562): 93.2% | activity at 10 µM (UACC-62): 75.7% | activity at 10 µM (DU-145): 86.8% | activity at 10 µM (SW-620): 106% | activity at 10 µM (OVCAR-3): 85.4% | activity at 10 µM (HCT-116): 97.8% | activity at 10 µM (SF-268): 85.8% | activity at 10 µM (SR): 82.8% | activity at 10 µM (MALME-3M): 92.3% | activity at 10 µM (SF-295): 91.6% | activity at 10 µM (SK-MEL-5): 95.5% | activity at 10 µM (A549/ATCC): 78.2% | activity at 10 µM (786-0): 114% | activity at 10 µM (CCRF-CEM): 66% | activity at 10 µM (HOP-62): 93.3% | activity at 10 µM (UACC-257): 89.9% | inhibition at 10 µM (VEGFR-2 tyrosine kinase): 38% | activity at 10 µM (RPMI-8226): 87.7% | activity at 10 µM (M14): 103%
